Test results reported in ChEMBL document CHEMBL5120841, “Discovery of novel pleuromutilin derivatives as potent antibacterial agents” (2022).
≈ marks a conversion by molar mass, not a printed value. Calls of active or inactive are those of the source. No cut-off for these calls is given here.

Legend:
Type in all cases: functional
[1] = system: Staphylococcus epidermidis; experiment: Antibacterial activity against methicillin-resistant Staphylococcus epidermidis ATCC 51625 assessed as bacterial growth inhibition incubated for 18 to 24 hrs by microtiter dilution method; settings: time 18-24 hrs
[2] = system: Escherichia coli; experiment: Antibacterial activity against Escherichia coli CICC 10389 assessed as bacterial growth inhibition incubated for 18 to 24 hrs by microtiter dilution method; settings: time 18-24 hrs
[3] = system: Staphylococcus aureus; experiment: Antibacterial activity against Staphylococcus aureus ATCC 25923 assessed as bacterial growth inhibition incubated for 18 to 24 hrs by microtiter dilution method; settings: time 18-24 hrs
[4] = system: Bacillus subtilis; experiment: Antibacterial activity against Bacillus subtilis assessed as bacterial growth inhibition incubated for 18 to 24 hrs by microtiter dilution method; settings: time 18-24 hrs
[5] = system: Enterococcus faecalis; experiment: Antibacterial activity against Enterococcus faecalis assessed as bacterial growth inhibition incubated for 18 to 24 hrs by microtiter dilution method; settings: time 18-24 hrs
[6] = system: Staphylococcus aureus; experiment: Antibacterial activity against methicillin-resistant Staphylococcus aureus BNCC 337371 assessed as bacterial growth inhibition incubated for 18 to 24 hrs by microtiter dilution method; settings: time 18-24 hrs
[7] = system: Staphylococcus aureus; experiment: Antibacterial activity against Staphylococcus aureus ATCC 25923 assessed as reduction on bacterial count at 6X MIC incubated for 24 hrs by time killing assay
[8] = system: Staphylococcus aureus; experiment: Antibacterial activity against methicillin-resistant Staphylococcus aureus BNCC 337371 assessed as reduction on bacterial count at 6X MIC incubated for 24 hrs by time killing assay

Row | Structure (SMILES) | MIC [1] | MIC [2] | MIC [3] | MIC [4] | MIC [5] | MIC [6] | Activity [7] | Activity [8]
1 | C=C[C@]1(C)C[C@@H](OC(=O)CSc2nc(C)c(C(=O)OCCC)c(C)n2)[C@]2(C)[C@H](C)CC[C@]3(CCC(=O)[C@H]32)[C@@H](C)[C@@H]1O | 0.125 µg/mL (≈ 0.213 µM) | > 16 µg/mL | 0.25 µg/mL (≈ 0.426 µM) | 4 µg/mL (≈ 6.82 µM) | > 16 µg/mL | 0.125 µg/mL (≈ 0.213 µM) | – | –
2 | C=C[C@]1(C)C[C@@H](OC(=O)CS[C@@H]2C[C@H]3CC[C@@H](C2)N3C)[C@]2(C)[C@H](C)CC[C@]3(CCC(=O)[C@H]32)[C@@H](C)[C@@H]1O [RETAPAMULIN] | 0.125 µg/mL (≈ 0.241 µM) | > 16 µg/mL | 0.25 µg/mL (≈ 0.483 µM) | 8 µg/mL (≈ 15.5 µM) | > 16 µg/mL | 0.125 µg/mL (≈ 0.241 µM) | 2.25 log10CFU/ml | 3.3 log10CFU/ml
3 | C=C[C@]1(C)C[C@@H](OC(=O)CSc2nc(C)c(C(=O)OC)c(CC)n2)[C@]2(C)[C@H](C)CC[C@]3(CCC(=O)[C@H]32)[C@@H](C)[C@@H]1O | 0.0625 µg/mL (≈ 0.109 µM) | > 16 µg/mL | 0.0313 µg/mL (≈ 0.0546 µM) | 4 µg/mL (≈ 6.98 µM) | > 16 µg/mL | 0.0625 µg/mL (≈ 0.109 µM) | – | –
4 | C=C[C@]1(C)C[C@@H](OC(=O)CSc2nc(C)c(C(=O)OC)c(CC(C)C)n2)[C@]2(C)[C@H](C)CC[C@]3(CCC(=O)[C@H]32)[C@@H](C)[C@@H]1O | 0.5 µg/mL (≈ 0.832 µM) | > 16 µg/mL | 0.25 µg/mL (≈ 0.416 µM) | > 16 µg/mL | > 16 µg/mL | 0.25 µg/mL (≈ 0.416 µM) | – | –
5 | C=C[C@]1(C)C[C@@H](OC(=O)CSC2=NC(C)=C(C(=O)OCCC)C(C)N2)[C@]2(C)[C@H](C)CC[C@]3(CCC(=O)[C@H]32)[C@@H](C)[C@@H]1O (stereo partly specified) | 0.5 µg/mL (≈ 0.849 µM) | > 16 µg/mL | 0.25 µg/mL (≈ 0.425 µM) | > 16 µg/mL | > 16 µg/mL | 0.5 µg/mL (≈ 0.849 µM) | – | –
6 | C=C[C@]1(C)C[C@@H](OC(=O)CSC2=NC(CC(C)C)=C(C(=O)OC)C(C)N2)[C@]2(C)[C@H](C)CC[C@]3(CCC(=O)[C@H]32)[C@@H](C)[C@@H]1O (stereo partly specified) | 0.5 µg/mL (≈ 0.829 µM) | > 16 µg/mL | 1 µg/mL (≈ 1.66 µM) | > 16 µg/mL | > 16 µg/mL | 0.5 µg/mL (≈ 0.829 µM) | – | –
7 | C=C[C@]1(C)C[C@@H](OC(=O)CSc2nc(C)c(C(=O)OC)c(CCC)n2)[C@]2(C)[C@H](C)CC[C@]3(CCC(=O)[C@H]32)[C@@H](C)[C@@H]1O | 0.0625 µg/mL (≈ 0.107 µM) | > 16 µg/mL | 0.25 µg/mL (≈ 0.426 µM) | 16 µg/mL (≈ 27.3 µM) | > 16 µg/mL | 0.125 µg/mL (≈ 0.213 µM) | – | –
8 | C=C[C@]1(C)C[C@@H](OC(=O)CSC2=NC(C)=C(C(C)=O)C(C)N2)[C@]2(C)[C@H](C)CC[C@]3(CCC(=O)[C@H]32)[C@@H](C)[C@@H]1O (stereo partly specified) | 0.25 µg/mL (≈ 0.459 µM) | > 16 µg/mL | 0.125 µg/mL (≈ 0.229 µM) | > 16 µg/mL | > 16 µg/mL | 0.25 µg/mL (≈ 0.459 µM) | – | –
9 | C=C[C@]1(C)C[C@@H](OC(=O)CSC2=NC(C)=C(C(=O)OC)C(C)N2)[C@]2(C)[C@H](C)CC[C@]3(CCC(=O)[C@H]32)[C@@H](C)[C@@H]1O (stereo partly specified) | 0.125 µg/mL (≈ 0.223 µM) | > 16 µg/mL | 0.25 µg/mL (≈ 0.446 µM) | 8 µg/mL (≈ 14.3 µM) | > 16 µg/mL | 0.25 µg/mL (≈ 0.446 µM) | – | –
10 | C=C[C@]1(C)C[C@@H](OC(=O)CSc2nc(C)c(C(=O)OC)c(C)n2)[C@]2(C)[C@H](C)CC[C@]3(CCC(=O)[C@H]32)[C@@H](C)[C@@H]1O | 0.0313 µg/mL (≈ 0.056 µM) | > 16 µg/mL | ≤ 0.0156 µg/mL | 2 µg/mL (≈ 3.58 µM) | > 16 µg/mL | ≤ 0.0156 µg/mL | Active | Active
11 | C=C[C@]1(C)C[C@@H](OC(=O)CSC2=NC(CCC)=C(C(=O)OC)C(C)N2)[C@]2(C)[C@H](C)CC[C@]3(CCC(=O)[C@H]32)[C@@H](C)[C@@H]1O (stereo partly specified) | 4 µg/mL (≈ 6.79 µM) | > 16 µg/mL | 4 µg/mL (≈ 6.79 µM) | 16 µg/mL (≈ 27.2 µM) | > 16 µg/mL | 8 µg/mL (≈ 13.6 µM) | – | –
12 | C=C[C@]1(C)C[C@@H](OC(=O)CSc2nc(C)c(C(=O)OC)c(CCCC)n2)[C@]2(C)[C@H](C)CC[C@]3(CCC(=O)[C@H]32)[C@@H](C)[C@@H]1O | 0.5 µg/mL (≈ 0.832 µM) | > 16 µg/mL | 2 µg/mL (≈ 3.33 µM) | > 16 µg/mL | > 16 µg/mL | 4 µg/mL (≈ 6.66 µM) | – | –
